This note sets out measurements from patent publication US9751851B2, “Molecules and compositions that inhibit gram negative bacteria and their uses” (THE TRUSTEES OF PRINCETON UNIVERSITY, priority 2013, dated 2017).

Where two headings read alike, the source gives them in different places.

Assay [1] concerns wild-type P. aeruginosa PA14. The assay is described as follows: microbe, parasite or virus in culture. The class given is cell-based. The conditions noted are these: for inhibition at 100 µM: Pseudomonas aeruginosa, PA14, 17 h; for inhibition at 100 µM / Efficacy (%): reduction of pyocyanin vs WT P. aeruginosa PA14: 0% = WT level, 100% = background medium; for inhibition of pyocyanin production (in words): wild-type P. aeruginosa PA14, end point assays at 100 μM; for IC50: WT P. aeruginosa PA14, 17 hr growth, titration, read-out: IC50 for inhibition of pyocyanin production. The protocol: Methods. The oxidized form of pyocyanin imparts a green color to P. aeruginosa cultures, making the production of pyocyanin convenient to monitor by UV/Vis absorbance. Overnight P. aeruginosa cultures were subcultured into 5 mL fresh medium at 1:1000 dilution. Synthetic compounds were assayed at 100 μM for end point assays and at concentrations ranging from 200 nM to 200 μM for titrations following 17 hr of aerobic growth with shaking at 37° C. Cells were separated from culture fluids via centrifugation at 13,000 rpm for 15 min. Culture fluids were passed through 0.22 μm syringe driven filters (Millipore). Cell-free culture fluids were analyzed for pyocyanin using wavelength scans on a Beckman Coulter DU-800 spectrophotometer from 200 nm to 800 nm 695 nm was chosen for graphical representation. Titration data were fit with a variable-slope sigmoidal dose-response curve using GraphPad Prism to determine the IC50 values.
The compounds of the first library were assayed in wild-type (WT) P. aeruginosa PA14. Pyocyanin was used as a read-out for quorum sensing activity based on its absorbance at 695 nm. The efficacy of the compounds at reducing pyocyanin levels was calculated with respect to WT levels of pyocyanin, where WT levels of pyocyanin would lead to a 0% efficacy, and an absorbance equal to the background medium would lead to a 100% efficacy. Agonists that increase pyocyanin production have negative efficacy values.

Another assay concerns P. aeruginosa PA14. The assay is described as follows: Growth of P. aeruginosa monitored by absorbance at 600 nm. The assay is classed as cell-based.
[2] abbreviates: read-out: Efficacy (%), Table 3.
The mark [3] stands for this setting: read-out: Efficacy (%), Table 4.
The mark [4] stands for this setting: read-out: Efficacy (%), Table 2, negative = agonist.
Where [5] appears, read: read-out: Efficacy (%), Table 1, negative = agonist.

Regarding `COc1cc(NC(=O)COc2cccc(Br)c2)nc(OC)n1` [S54, 4-amino-2,6-dimethoxypyrimidine-C6-3-bromophenoxyhybrid], the inhibition at 100 µM in assay [1] (setting [2]) was 15 ± 7%.

Turning to `O=C(COc1c(F)c(F)c(F)c(F)c1F)Nc1ccnc(C(F)(F)F)c1` [S72, 4-amino-2-trifluoromethylpyridine-C6-perfluorophenoxyhybrid], in assay [1] (setting [3]), the inhibition at 100 µM came to 21 ± 14%.

For the molecule `CCCCCCCCCCCCNC(=O)c1ccncc1` [S21, C12-isonicotinic amide], in assay [1] (setting [4]), the inhibition at 100 µM was 13 ± 3%.

`O=C(COc1cccc(F)c1)Nc1ccnc(C(F)(F)F)c1` [compound 17, 4-amino-2-trifluoromethylpyridine-C6-3-fluorophenoxyhybrid]: the inhibition at 100 µM in assay [1] (setting [3]) came out at 103%. Moreover, in assay [1] (Table 4), the “Efficacy (%)” value is reported as 103 ± 3%. Further, the “inhibition of pyocyanin production (in words)” value (“inhibition … (in words)” for short) in assay [1] is listed as “highly effective at blocking pyocyanin production”.

As to `O=C(COc1cccc(Br)c1)Nc1ccncc1C(F)(F)F` [S62, 4-amino-3-trifluoromethylpyridine-C6-3-bromophenoxyhybrid], in assay [1] (setting [2]), the inhibition at 100 µM was 15%. Also, in assay [1] (Table 3), the “Efficacy (%)” value was 15 ± 7%.

Regarding `O=C(COc1cccc(Br)c1)Nc1ccnc(C(F)(F)F)c1` [S57, 4-amino-2-trifluoromethylpyridine-C5-3-bromophenoxyhybrid], the “Efficacy (%)” value was 95% in assay [1] (Table 3, listed as Table 3 entry 17) and 95 ± 5% in assay [1] (Table 3, listed as drawing 75).

One may read the IC50 as the midpoint of a concentration-inhibition curve. As for `O=C(CCCOc1cccc(Br)c1)N[C@H]1CCSC1=O` [(S)-mBTL], the IC50 in assay [1] turned out to be 4 µM.

In the case of `O=C(CCCCCCc1cccc(F)c1)Nc1ccnc(C(F)(F)F)c1` [S83, 7-(3-fluorophenyl)-N-(2-(trifluoromethyl)pyridin-4-yl)heptanamide], in assay [1] (setting [3]), the inhibition at 100 µM was found to be 96%. Moreover, the “Efficacy (%)” value in assay [1] (Table 4) amounted to 96 ± 4%.

Take `CCCCCCCCCCCC(=O)NCc1ccncc1` [S22, C12-4-(aminomethyl)pyridine]: the inhibition at 100 µM in assay [1] (setting [4]) is 7.7 ± 5%.

Regarding `CCCCCCCCCCCC(=O)Nc1ccnc(F)c1` [compound 15, C12-4-amino-2-fluoropyridine], the inhibition at 100 µM in assay [1] (setting [4]) was found to be 70%. Besides, the “Efficacy (%)” value in assay [1] (Table 2, negative = agonist) is reported as 70 ± 2%.

As for `CCCCCCCCCC(=O)CC(=O)Nc1ccncn1` [S3, 3OC12-4-aminopyrimidine], the inhibition at 100 µM in assay [1] (setting [5]) turned out to be 64 ± 0.8%.

For “chlorothiolactone [CTL, reference compound]”, in assay [1], the “inhibition … (in words)” value is “Neither CL nor CTL inhibited pyocyanin production”.

Consider `O=C(COc1cccc(Br)c1)Nc1ccncn1` [S51, 4-aminopyrimidine-C6-3-bromophenoxyhybrid], for which the inhibition at 100 µM in assay [1] (setting [2]) is 27 ± 7%.

For the molecule `CCCCCCCCCCCC(=O)Nc1ccncc1` [S8, C12-4-aminopyridine], in assay [1] (setting [5]), the inhibition at 100 µM worked out at 28 ± 11%.

Take `O=C(COc1ccc(F)cc1F)Nc1ccnc(C(F)(F)F)c1` [S70, 4-amino-2-trifluoromethylpyridine-C6-2,4-bisfluorophenoxyhybrid]: in assay [1] (setting [3]), the inhibition at 100 µM came out at 49 ± 3%.

Turning to `O=C(COc1cccc(Br)c1)Nc1ccnc(C(F)(F)F)c1` [S58, 4-amino-2-trifluoromethylpyridine-C7-3-bromophenoxyhybrid], the “Efficacy (%)” value in assay [1] (Table 3, listed as drawing 77) is on record as 23 ± 7%.

Take `CCCCCCCCCC(=O)CC(=O)Nc1ccnc(F)c1` [S18, 3OC12-4-amino-2-fluoropyridine]: the inhibition at 100 µM in assay [1] (setting [4]) was -8.5 ± 3%.

With `O=C(CCCOc1cccc(Cl)c1)NC1CCSC1=O` (stereo not drawn) [mCTL], in assay [1], the IC50 amounted to 9 µM and the “inhibition … (in words)” value is recorded as “potent inhibition of pyocyanin”. The “effect on P. aeruginosa PA14 growth” value in the assay with P. aeruginosa PA14 was “not affecting P. aeruginosa PA14 growth”.

With `O=C(CNc1cccc(F)c1)Nc1ccnc(C(F)(F)F)c1` [S80, 4-amino-2-trifluoromethylpyridine-C6-3-fluoroaniline hybrid], the inhibition at 100 µM in assay [1] (setting [3]) came out at 100%. In assay [1] (Table 4), the “Efficacy (%)” value came out at 100 ± 4%.

As for `CCCCCCCCCC(=O)CC(=O)Nc1cccnc1` [S2, 3OC12-3-aminopyridine], in assay [1] (setting [5]), the inhibition at 100 µM came to 10 ± 9%.

For `O=C(COc1cccc(Br)c1)Nc1ccnc(C(F)(F)F)c1` [S56, 4-amino-2-trifluoromethylpyridine-C4-3-bromophenoxyhybrid], the “Efficacy (%)” value in assay [1] (Table 3, listed as drawing 74) is 43 ± 8%.

Turning to `CCCCCCCCCCCC(=O)Nc1ccc2[nH]ccc2c1` [S25, C12-5-aminoindole], the inhibition at 100 µM in assay [1] (setting [4]) is -11 ± 3%.

For the molecule `CCCCCCCCCCCC(=O)Nc1ccnc(C(F)(F)F)c1` [S20, C12-4-amino-2-trifluoromethylpyridine], in assay [1] (setting [4]), the inhibition at 100 µM is 27 ± 3%.

As for `O=C(COc1cccc(I)c1)Nc1ccnc(C(F)(F)F)c1` [S66, 4-amino-2-trifluoromethylpyridine-C6-3-iodophenoxyhybrid], in assay [1] (setting [3]), the inhibition at 100 µM was 95%. Further, the “Efficacy (%)” value in assay [1] (Table 4) was 95 ± 3%.

On to `O=C(COc1cccc(O)c1)Nc1ccnc(C(F)(F)F)c1` [S77, 4-amino-2-trifluoromethylpyridine-C6-3-hydroxyphenoxyhybrid], for which the inhibition at 100 µM in assay [1] (setting [3]) is 70%. Further, the “Efficacy (%)” value in assay [1] (Table 4) came to 70 ± 7%.

Turning to `O=C(CCCCC#Cc1cccc(F)c1)Nc1ccnc(C(F)(F)F)c1` [S82, 7-(3-fluorophenyl)-N-(2-(trifluoromethyl)pyridin-4-yl)hept-6-ynamide], in assay [1] (setting [3]), the inhibition at 100 µM came to 97%. The “Efficacy (%)” value in assay [1] (Table 4) came out at 97 ± 4%.

With `COc1cc(NC(=O)COc2cccc(Br)c2)ncn1` [S52, 4-amino-6-methoxypyrimidine-C6-3-bromophenoxyhybrid], the inhibition at 100 µM in assay [1] (setting [2]) came to 41%. Also, the “Efficacy (%)” value in assay [1] (Table 3) turned out to be 41 ± 9%.

On to `O=C(COc1cccc(Br)c1)Nc1ccnc(Cl)c1` [S55, 4-amino-2-chloropyridine-C6-3-bromophenoxyhybrid], for which the inhibition at 100 µM in assay [1] (setting [2]) is 89%. The “Efficacy (%)” value in assay [1] (Table 3) amounted to 89 ± 5%.

Consider `COc1nccc(NC(=O)COc2cccc(Br)c2)n1` [S53, 4-amino-2-methoxypyrimidine-C6-3-bromophenoxyhybrid], for which the inhibition at 100 µM in assay [1] (setting [2]) came out at 16 ± 5%.

Turning to `O=C(COc1c(F)cccc1F)Nc1ccnc(C(F)(F)F)c1` [S71, 4-amino-2-trifluoromethylpyridine-C6-2,6-bisfluorophenoxyhybrid], the inhibition at 100 µM in assay [1] (setting [3]) amounted to 66 ± 4%.

On to `CCCCCCCCCCCC(=O)Nc1ncccn1` [S11, C12-2-aminopyrimidine], for which, in assay [1] (setting [5]), the inhibition at 100 µM was 23 ± 3%.

`CCCCCCCCCC(=O)CC(=O)Nc1ccccn1` [S1, 3OC12-2-aminopyridine]: in assay [1] (setting [5]), the inhibition at 100 µM is 44 ± 13%.

In the case of `COc1cc(NC(=O)COc2cccc(Br)c2)ccn1` [S44, 4-amino-2-methoxypyridine-C5-3-bromophenoxyhybrid], the “Efficacy (%)” value is listed as 81% in assay [1] (Table 3, listed as Table 3 entry 6) and 81 ± 6% in assay [1] (Table 3, listed as drawing 64).

With `CCCCCCCCCCCC(=O)O/N=C1\COc2ccccc21` [S29, C12-dihydrobenzofuran acylhydroxylamine], in assay [1] (setting [4]), the inhibition at 100 µM turned out to be 12 ± 3%.

`O=C(COc1cccc(Br)c1)Nc1cc(C(F)(F)F)cc(C(F)(F)F)c1` [S60, 1-amino-3,5-bis(trifluoromethyl)-C6-3-bromophenoxyhybrid]: the inhibition at 100 µM in assay [1] (setting [2]) amounted to 44%. Further, the “Efficacy (%)” value in assay [1] (Table 3) is recorded as 44 ± 8%.
